From patent publication US12319664B2, “Herbicidally active 3-phenylisoxazoline-5-carboxamides of cyclopentenylcarboxylic acid derivatives” (Bayer Aktiengesellschaft, priority 2018, dated 2025)

Legend:
VIOTR [1] = test: Pre-emergence herbicidal action against VIOTR; format: in vivo, Viola tricolor; details: application rate 80 g/ha
Text: (§1) 1. Pre-emergence herbicidal action against harmful plants and crop plant compatibility Seeds of monocotyledonous and dicotyledonous weed plants and crop plants are placed in plastic or wood-fibre pots and covered with soil. The compounds of the invention, formulated in the form of wettable powders (WP) or as emulsion concentrates (EC), are then applied onto the surface of the covering soil as aqueous suspension or emulsion with addition of 0.5% additive at a water application rate of 600 l/ha (converted). After the treatment, the pots are placed in a greenhouse and kept under good growth conditions for the trial plants. After about 3 weeks, the effect of the preparations is scored visually in comparison with untreated controls as percentages. For example, 100% activity=the plants have died, 0% activity=like control plants. [table]

STEME [2] = test: Post-emergence herbicidal action against STEME; format: in vivo, Stellaria media; details: application rate 80 g/ha, rated visually about 3 weeks after treatment
Procedure, shortened: (§2)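 Weeds grown from seed in sandy loam in the greenhouse, sprayed post-emergence at the one-leaf stage 2 to 3 weeks after sowing. Compounds formulated as WP or EC, applied as aqueous suspension/emulsion with 0.5% additive at 600 l/ha. Activity rated visually after about 3 weeks against untreated controls (100% = plants died, 0% = like control).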

SETVI [3] = test: Post-emergence herbicidal action against SETVI; format: in vivo, Setaria viridis; details: application rate 80 g/ha, rated visually after about 3 weeks
Procedure, shortened: as §2

AVEFA [4] = test: Pre-emergence herbicidal action against AVEFA; format: in vivo, Avena fatua; details: application rate 80 g/ha, scored visually after about 3 weeks vs untreated controls (100% = plants have died, 0% = like control plants)
Text: as §1

AVEFA [5] = test: Post-emergence herbicidal action against AVEFA; format: in vivo, Avena fatua; details: application rate 80 g/ha, rated visually after about 3 weeks
Procedure, shortened: as §2

ALOMY [6] = test: Pre-emergence herbicidal action against ALOMY; format: in vivo, Alopecurus myosuroides; details: application rate 80 g/ha, scored visually after about 3 weeks vs untreated controls (100% = plants have died, 0% = like control plants)
Text: as §1

AMARE [7] = test: Pre-emergence herbicidal action against AMARE; format: in vivo, Amaranthus retroflexus; details: application rate 80 g/ha
Text: as §1

ECHCG [8] = test: Pre-emergence herbicidal action against ECHCG; format: in vivo, Echinochloa crus-galli; details: application rate 80 g/ha, scored visually after about 3 weeks vs untreated controls (100% = plants have died, 0% = like control plants)
Text: as §1

VERPE [9] = test: Pre-emergence herbicidal action against VERPE; format: in vivo, Veronica persica; details: application rate 80 g/ha
Text: as §1

ECHCG [10] = test: Post-emergence herbicidal action against ECHCG; format: in vivo, Echinochloa crus-galli; details: application rate 80 g/ha, rated visually after about 3 weeks
Procedure, shortened: as §2

LOLRI [11] = test: Pre-emergence herbicidal action against LOLRI; format: in vivo, Lolium rigidum; details: application rate 80 g/ha, scored visually after about 3 weeks vs untreated controls (100% = plants have died, 0% = like control plants)
Text: as §1

POLCO [12] = test: Post-emergence herbicidal action against POLCO; format: in vivo, Polygonum convolvulus; details: application rate 80 g/ha, rated visually about 3 weeks after treatment
Procedure, shortened: as §2

PHBPU [13] = test: Pre-emergence herbicidal action against PHBPU; format: in vivo, Pharbitis purpurea; details: application rate 80 g/ha
Text: as §1

STEME [14] = test: Pre-emergence herbicidal action against STEME; format: in vivo, Stellaria media; details: application rate 80 g/ha
Text: as §1

HORMU [15] = test: Pre-emergence herbicidal action against HORMU; format: in vivo, Hordeum murinum; details: application rate 80 g/ha
Text: as §1

AMARE [16] = test: Post-emergence herbicidal action against AMARE; format: in vivo, Amaranthus retroflexus; details: application rate 80 g/ha, rated visually about 3 weeks after treatment
Procedure, shortened: as §2

POLCO [17] = test: Pre-emergence herbicidal action against POLCO; format: in vivo, Polygonum convolvulus; details: application rate 80 g/ha
Text: as §1

LOLRI [18] = test: Post-emergence herbicidal action against LOLRI; format: in vivo, Lolium rigidum; details: application rate 80 g/ha, rated visually after about 3 weeks
Procedure, shortened: as §2

HORMU [19] = test: Post-emergence herbicidal action against HORMU; format: in vivo, Hordeum murinum; details: application rate 80 g/ha
Procedure, shortened: as §2

SETVI [20] = test: Pre-emergence herbicidal action against SETVI; format: in vivo, Setaria viridis; details: application rate 80 g/ha, scored visually after about 3 weeks vs untreated controls (100% = plants have died, 0% = like control plants)
Text: as §1

ALOMY [21] = test: Post-emergence herbicidal action against ALOMY; format: in vivo, Alopecurus myosuroides; details: application rate 80 g/ha, rated visually after about 3 weeks
Procedure, shortened: as §2

PHBPU [22] = test: Post-emergence herbicidal action against PHBPU; format: in vivo, Pharbitis purpurea; details: application rate 80 g/ha, rated visually about 3 weeks after treatment
Procedure, shortened: as §2

ABUTH = test: Post-emergence herbicidal action against ABUTH; format: in vivo, Abutilon theophrasti; details: application rate 80 g/ha, rated visually about 3 weeks after treatment
Procedure, shortened: as §2

VERPE [23] = test: Post-emergence herbicidal action against VERPE; format: in vivo, Veronica persica; details: application rate 80 g/ha
Procedure, shortened: as §2

VIOTR [24] = test: Post-emergence herbicidal action against VIOTR; format: in vivo, Viola tricolor; details: application rate 80 g/ha, rated visually about 3 weeks after treatment
Procedure, shortened: as §2

MATIN = test: Pre-emergence herbicidal action against MATIN; format: in vivo, Matricaria inodora; details: application rate 80 g/ha, scored visually after about 3 weeks vs untreated controls (100% = plants have died, 0% = like control plants)
Text: as §1

SMILES | Herbicidal action against [%] VIOTR (VIOTR [1]) | Herbicidal action against [%] STEME (STEME [2]) | Herbicidal action against [%] SETVI (SETVI [3]) | Herbicidal action against [%] AVEFA (AVEFA [4]) | Herbicidal action against [%] AVEFA (AVEFA [5]) | Herbicidal action against [%] ALOMY (ALOMY [6]) | Herbicidal action against [%] AMARE (AMARE [7]) | Herbicidal action against [%] ECHCG (ECHCG [8]) | Herbicidal action against [%] VERPE (VERPE [9]) | Herbicidal action against [%] ECHCG (ECHCG [10]) | Herbicidal action against [%] LOLRI (LOLRI [11]) | Herbicidal action against [%] POLCO (POLCO [12]) | Herbicidal action against [%] STEME (STEME [14]) | Herbicidal action against [%] HORMU (HORMU [15]) | Herbicidal action against [%] AMARE (AMARE [16]) | Herbicidal action against [%] POLCO (POLCO [17]) | Herbicidal action against [%] LOLRI (LOLRI [18]) | Herbicidal action against [%] HORMU (HORMU [19]) | Herbicidal action against [%] SETVI (SETVI [20]) | Herbicidal action against [%] ALOMY (ALOMY [21]) | other results
COC(=O)C1=CC[C@H](NC(=O)C2(C)CC(c3cccc(F)c3)=NO2)C1 (stereo partly shown) [III-04] | 90% | 80% | 80% | 90% | 100% | 100% | 90% | 90% | 90% | 80% | 100% | 80% | 90% | 100% | 80% | 100% | 90% | 100% | 100% | 90% | Herbicidal action against [%] PHBPU (PHBPU [13]): 90%; Herbicidal action against [%] PHBPU (PHBPU [22]): 90%
CCOC(=O)C1=CC[C@H](NC(=O)C2(C)CC(c3cccc(F)c3)=NO2)C1 (stereo partly shown) [III-06] | 90% | 90% | 80% | 80% | 80% | 100% | – | 90% | 80% | 80% | 100% | 80% | 90% | 90% | 80% | 100% | 90% | 90% | 100% | 90% | Herbicidal action against [%] ABUTH (ABUTH): 80%; Herbicidal action against [%] PHBPU (PHBPU [13]): 80%
CC1(C(=O)N[C@H]2CC=C(C(=O)O)C2)CC(c2cccc(F)c2)=NO1 (stereo partly shown) [III-02] | – | 80% | 80% | 80% | 90% | 100% | 80% | – | 90% | 90% | 100% | – | 80% | 100% | 80% | – | 90% | 100% | – | 80% | Herbicidal action against [%] PHBPU (PHBPU [13]): 80%; Herbicidal action against [%] VERPE (VERPE [23]): 80%; Herbicidal action against [%] PHBPU (PHBPU [22]): 80%
CC1(C(=O)NC2C=CC(C(=O)N3CCCCO3)C2)CC(c2cc(F)cc(F)c2)=NO1 (mixture of isomers) [II-07] | 100% | 90% | – | 80% | 80% | 100% | 100% | 90% | 100% | 80% | 100% | – | 100% | 90% | – | 100% | 80% | – | 100% | 80% | Herbicidal action against [%] VIOTR (VIOTR [24]): 80%; Herbicidal action against [%] VERPE (VERPE [23]): 80%
CCONC(=O)[C@@H]1C=C[C@H](NC(=O)C2(C)CC(c3cccc(F)c3)=NO2)C1 (stereo partly shown) [II-04] | – | 80% | 80% | 80% | 80% | 100% | 100% | 90% | – | 80% | 90% | – | 100% | 90% | – | 90% | 80% | – | 90% | 80% | Herbicidal action against [%] MATIN (MATIN): 80%
CC1(C(=O)N[C@H]2C=C[C@@H](C(=O)N3CCCO3)C2)CC(c2cc(F)cc(F)c2)=NO1 (stereo partly shown) [II-06] | 100% | 80% | 80% | 90% | 80% | 90% | 100% | 90% | 90% | 80% | 100% | 80% | 90% | 100% | 80% | 80% | 90% | 80% | 100% | 90% | Herbicidal action against [%] ABUTH (ABUTH): 80%; Herbicidal action against [%] VERPE (VERPE [23]): 80%; Herbicidal action against [%] PHBPU (PHBPU [22]): 80%
